Source: patent US7166275B2, “Compositions containing phenethyl aryl esters as solubilizing agents for active organic compounds” (ISP Investments Inc., priority 2003, dated 2007)

Columns and labels:
[1] = Solubility of solid organic sunscreens (Escalol 517, Escalol 567) in various solvents; format: physicochemical; conditions: solutions prepared at 50° C., stood 1 week at 25° C., seeded
Protocol: A small seed crystal was added at 25° C. to hasten equilibration.

[2] = Solubility of active compounds in 2-phenylethyl benzoate, determined by GLC; format: physicochemical; conditions: for Solubility (soluble up to) in 2-phenylethyl benzoate: solvent 2-phenylethyl benzoate, 25° C.
Protocol: Predetermined weight/weight (w/w) solutions were prepared at 50° C. using a given solvent and Escalol® 517 or Escalol® 567. […] A small seed crystal was added at 25° C. to hasten equilibration. Solubility limits were determined by observation of the amount of solid present, and then more precisely by a GLC method (see Example 15).
5-Chloro-2-(2,4-dichlorophenoxy)phenol (Triclosan) has bacteriostatic properties and is used as a disinfectant and preservative in cosmetic and detergent preparations. It is soluble up to 69% w/w in 2-phenylethyl benzoate, as determined by GLC. Thus, 50% w/w and 60% w/w mixtures were homogeneous solutions at 25° C., but a 70% w/w solution prepared at 70° C. precipitated a small amount of solid when seeded at 25° C. and allowed to stand for 3 days.
An 80% w/w solution prepared from 8.002 g of Triclosan and 2.009 g of 2-phenylethyl benzoate precipitated a significant amount of solid at 25° C. A 23.3-mg sample of the supernatant was dissolved in 1.00 mL of chloroform and 1.00 μL was injected via automatic injector into a GLC instrument. The areas of the 2-phenylethyl benzoate and Triclosan peaks were 9381 and 12953, respectively. The mixture was heated at 70° C. until it was homogeneous, and an 18.2-mg sample was dissolved and injected in the same manner. […] (Note that the amount injected was 3.6 μg+14.6 μg=18.2 μg.) Therefore, under our GLC conditions the response factors were 1240 units/μg and 770 units/μg, respectively. Then, the respective amounts of each component in the supernatant were 9381/1240 =7.6 μg and 12953/770 =16.8 μg, which corresponds to 69% w/w Triclosan.

O=C(OCCc1ccccc1)c1ccccc1C(=O)OCCc1ccccc1 [Di-2-phenylethyl phthalate, di-2-phenylethyl phthalate]
Solubility of Escalol 517 in the solvent ([1]; solute Escalol 517 (avobenzone)): 30 % w/w
Solubility of Escalol 567 in the solvent ([1]; solute Escalol 567 (benzophenone-3)): 31 % w/w

Oc1cc(Cl)ccc1Oc1ccc(Cl)cc1Cl [Triclosan, 5-Chloro-2-(2,4-dichlorophenoxy)phenol]
Solubility (soluble up to) in 2-phenylethyl benzoate [2]: 69 % w/w

CCCN(CCC)c1c([N+](=O)[O-])cc(C(F)(F)F)c(N)c1[N+](=O)[O-] [Prodiamine, 5-Dipropylamino-α,α,α-trifluoro-4,6-dinitro-o-toluidine]
Solubility (soluble up to) in 2-phenylethyl benzoate/N-methylpyrrolidinone (1:1 w/w) ([2]; solvent 2-phenylethyl benzoate/N-methylpyrrolidinone (1:1 w/w)): 24 % w/w
Solubility (soluble up to) in 2-phenylethyl benzoate [2]: 5 % w/w
